Our source for the IC50 values is BindingDB's records for doi:10.1016/j.bmcl.2009.09.017 (Pfizer, 2009).

The experiment is described as follows: Antagonist activity at P2Y12 receptor in human platelet rich plasma assessed as inhibition of ADP-induced platelet aggregation by light transmission aggregometry.

As usually defined, the IC50 is the point on the concentration scale where inhibition reaches its midpoint.

As to `CCCCCOC(=O)N1CCN(C(=O)[C@H](CCC(=O)O)NC(=O)c2cc(SC3CCCC3)nc(-c3ccccc3)n2)CC1` [(S)-4-(6-(cyclopentylthio)-2-phenylpyrimidine-4-carboxamido)-5-oxo-5-(4-(pentyloxycarbonyl)piperazin-1-yl)pentanoic acid], the IC50 is greater than 10000 nM.

Consider `CCCCOC(=O)N1CCN(C(=O)[C@H](CCC(=O)O)NC(=O)c2cc(OC3CCNCC3)nc(-c3ccccc3)n2)CC1` [(S)-5-(4-(butoxycarbonyl)piperazin-1-yl)-5-oxo-4-(2-phenyl-6-(piperidin-4-yloxy)pyrimidine-4-carboxamido)pentanoic acid], for which the IC50 worked out at 1300 nM.

For `CCCCCOC(=O)N1CCN(C(=O)[C@H](CCC(=O)O)NC(=O)c2nc(-c3ccccc3)cc(N3CCN(CCOC)CC3)n2)CC1` [(S)-4-(4-(4-(2-methoxyethyl)piperazin-1-yl)-6-phenylpyrimidine-2-carboxamido)-5-oxo-5-(4-(pentyloxycarbonyl)piperazin-1-yl)pentanoic acid], the half-maximal inhibitory concentration (IC50) is 5100 nM.

`CCCCCOC(=O)N1CCN(C(=O)[C@H](CCC(=O)O)NC(=O)c2cc(N3CCN(C(=O)N(C)C)CC3)nc(-c3ccccc3)n2)CC1` [(S)-4-(6-(4-(dimethylcarbamoyl)piperazin-1-yl)-2-phenylpyrimidine-4-carboxamido)-5-oxo-5-(4-(pentyloxycarbonyl)piperazin-1-yl)pentanoic acid]: the IC50 worked out at 1600 nM.

With `CCCCCOC(=O)N1CCN(C(=O)[C@H](CCC(=O)O)NC(=O)c2cc(OCCCN3CCOCC3)nc(-c3ccccc3)n2)CC1` [(S)-4-(6-(3-morpholinopropoxy)-2-phenylpyrimidine-4-carboxamido)-5-oxo-5-(4-(pentyloxycarbonyl)piperazin-1-yl)pentanoic acid], the IC50 is 8700 nM.

In the case of `CCCCOC(=O)N1CCN(C(=O)[C@H](CCC(=O)O)NC(=O)c2cc(OC(CC)C(=O)N(CC)CC)nc(-c3ccccc3)n2)CC1` (stereo partly drawn) [(4S)-5-(4-(butoxycarbonyl)piperazin-1-yl)-4-(6-(1-(diethylamino)-1-oxobutan-2-yloxy)-2-phenylpyrimidine-4-carboxamido)-5-oxopentanoic acid], the IC50 stood at 49000 nM.

Turning to `CCCCOC(=O)N1CCN(C(=O)[C@H](CCC(=O)O)NC(=O)c2cc(N3CCC(C(=O)N(CC)CC)CC3)nc(-c3ccccc3)n2)CC1` [(S)-5-(4-(butoxycarbonyl)piperazin-1-yl)-4-(6-(4-(diethylcarbamoyl)piperidin-1-yl)-2-phenylpyrimidine-4-carboxamido)-5-oxopentanoic acid], the IC50 was 280 nM.

In the case of `CCCCCOC(=O)N1CCN(C(=O)[C@H](CCC(=O)O)NC(=O)c2cc(N3CCC(CC(=O)N(CC)CC)CC3)nc(-c3ccccc3)n2)CC1` [(S)-4-(6-(4-(2-(diethylamino)-2-oxoethyl)piperidin-1-yl)-2-phenylpyrimidine-4-carboxamido)-5-oxo-5-(4-(pentyloxycarbonyl)piperazin-1-yl)pentanoic acid], the IC50 was determined as 2600 nM.

On to `CCCCCOC(=O)N1CCN(C(=O)[C@H](CCC(=O)O)NC(=O)c2cc(N3CCC(N)CC3)nc(-c3ccccc3)n2)CC1` [(S)-4-(6-(4-aminopiperidin-1-yl)-2-phenylpyrimidine-4-carboxamido)-5-oxo-5-(4-(pentyloxycarbonyl)piperazin-1-yl)pentanoic acid], for which the IC50 was determined as 720 nM.

With `CCCCCOC(=O)N1CCN(C(=O)[C@H](CCC(=O)O)NC(=O)c2nc(NC3CCN(C(C)C)CC3)cc(-c3ccccc3)n2)CC1` [(S)-4-(4-(1-isopropylpiperidin-4-ylamino)-6-phenylpyrimidine-2-carboxamido)-5-oxo-5-(4-(pentyloxycarbonyl)piperazin-1-yl)pentanoic acid], the half-maximal inhibitory concentration (IC50) is greater than 10000 nM.

For the compound `CCCCOC(=O)N1CCN(C(=O)[C@H](CCC(=O)O)NC(=O)c2cc(N3CCC(C(=O)N(C)C)CC3)nc(-c3ccccc3)n2)CC1` [(S)-5-(4-(butoxycarbonyl)piperazin-1-yl)-4-(6-(4-(dimethylcarbamoyl)piperidin-1-yl)-2-phenylpyrimidine-4-carboxamido)-5-oxopentanoic acid], the IC50 was found to be 1500 nM.

As to `CCCCCOC(=O)N1CCN(C(=O)[C@H](CCC(=O)O)NC(=O)c2cc(N3CCC(C)CC3)nc(-c3ccccc3)n2)CC1` [(S)-4-(6-(4-methylpiperidin-1-yl)-2-phenylpyrimidine-4-carboxamido)-5-oxo-5-(4-(pentyloxycarbonyl)piperazin-1-yl)pentanoic acid], the IC50 is greater than 10000 nM.

Take `CCCCCOC(=O)N1CCN(C(=O)[C@H](CCC(=O)O)NC(=O)c2cc(OCCN(CC)CC)nc(-c3ccccc3)n2)CC1` [(S)-4-(6-(2-(diethylamino)ethoxy)-2-phenylpyrimidine-4-carboxamido)-5-oxo-5-(4-(pentyloxycarbonyl)piperazin-1-yl)pentanoic acid]: the IC50 was 15000 nM.

With `CCCCCOC(=O)N1CCN(C(=O)[C@H](CCC(=O)O)NC(=O)c2nc(OCCCN3CCOCC3)cc(-c3ccccc3)n2)CC1` [(S)-4-(4-(3-morpholinopropoxy)-6-phenylpyrimidine-2-carboxamido)-5-oxo-5-(4-(pentyloxycarbonyl)piperazin-1-yl)pentanoic acid], the IC50 was 7000 nM.

Consider `CCCCCOC(=O)N1CCN(C(=O)[C@H](CCC(=O)O)NC(=O)c2nc(OCCOC)cc(-c3ccccc3)n2)CC1` [(S)-4-(4-(2-methoxyethoxy)-6-phenylpyrimidine-2-carboxamido)-5-oxo-5-(4-(pentyloxycarbonyl)piperazin-1-yl)pentanoic acid], for which the IC50 was greater than 10000 nM.

In the case of `CCCCCOC(=O)N1CCN(C(=O)[C@H](CCC(=O)O)NC(=O)c2cc(N3CCC(C(=O)N(CC)CC)CC3)nc(-c3ccccc3)n2)CC1` [(S)-4-(6-(4-(diethylcarbamoyl)piperidin-1-yl)-2-phenylpyrimidine-4-carboxamido)-5-oxo-5-(4-(pentyloxycarbonyl)piperazin-1-yl)pentanoic acid], the IC50 was 400 nM.

For `CCCCCOC(=O)N1CCN(C(=O)[C@H](CCC(=O)O)NC(=O)c2cc(N3CCC(CN4CCCC4=O)CC3)nc(-c3ccccc3)n2)CC1` [(S)-5-oxo-4-(6-(4-((2-oxopyrrolidin-1-yl)methyl)piperidin-1-yl)-2-phenylpyrimidine-4-carboxamido)-5-(4-(pentyloxycarbonyl)piperazin-1-yl)pentanoic acid], the IC50 came out at 1600 nM.

Consider `CCCCCOC(=O)N1CCN(C(=O)[C@H](CCC(=O)O)NC(=O)c2cc(SC(C)(C)C)nc(-c3ccccc3)n2)CC1` [(S)-4-(6-(tert-butylthio)-2-phenylpyrimidine-4-carboxamido)-5-oxo-5-(4-(pentyloxycarbonyl)piperazin-1-yl)pentanoic acid], for which the 50% inhibitory concentration (IC50) was greater than 10000 nM.

As to `CCCCCOC(=O)N1CCN(C(=O)[C@H](CCC(=O)O)NC(=O)c2nc(-c3ccccc3)cc(N3CCC(CCN4CCCC4)CC3)n2)CC1` [(S)-5-oxo-5-(4-(pentyloxycarbonyl)piperazin-1-yl)-4-(4-phenyl-6-(4-(2-(pyrrolidin-1-yl)ethyl)piperidin-1-yl)pyrimidine-2-carboxamido)pentanoic acid], the IC50 turned out to be 1700 nM.

Consider `CCCCCOC(=O)N1CCN(C(=O)[C@H](CCC(=O)O)NC(=O)c2cc(N3CCN(C(C)=O)CC3)nc(-c3ccccc3)n2)CC1` [(S)-4-(6-(4-acetylpiperazin-1-yl)-2-phenylpyrimidine-4-carboxamido)-5-oxo-5-(4-(pentyloxycarbonyl)piperazin-1-yl)pentanoic acid], for which the IC50 turned out to be 1500 nM.

As for `CCCCOC(=O)N1CCN(C(=O)[C@H](CCC(=O)O)NC(=O)c2cc(OCCOC)nc(-c3ccccc3)n2)CC1` [(S)-5-(4-(butoxycarbonyl)piperazin-1-yl)-4-(6-(2-methoxyethoxy)-2-phenylpyrimidine-4-carboxamido)-5-oxopentanoic acid], the IC50 was 2600 nM.

Take `CCCCOC(=O)N1CCN(C(=O)[C@H](CCC(=O)O)NC(=O)c2cc(OCC3CCCO3)nc(-c3ccccc3)n2)CC1` (stereo partly drawn) [(4S)-5-(4-(butoxycarbonyl)piperazin-1-yl)-5-oxo-4-(2-phenyl-6-((tetrahydrofuran-2-yl)methoxy)pyrimidine-4-carboxamido)pentanoic acid]: the IC50 amounted to 4400 nM.

Consider `CCCCCOC(=O)N1CCN(C(=O)[C@H](CCC(=O)O)NC(=O)c2cc(N3CCC(COC)CC3)nc(-c3ccccc3)n2)CC1` [(S)-4-(6-(4-(methoxymethyl)piperidin-1-yl)-2-phenylpyrimidine-4-carboxamido)-5-oxo-5-(4-(pentyloxycarbonyl)piperazin-1-yl)pentanoic acid], for which the IC50 was found to be 2000 nM.

`CCCCCOC(=O)N1CCN(C(=O)[C@H](CCC(=O)O)NC(=O)c2cc(N3CCC(CC(=O)N4CCC4)CC3)nc(-c3ccccc3)n2)CC1` [(S)-4-(6-(4-(2-(azetidin-1-yl)-2-oxoethyl)piperidin-1-yl)-2-phenylpyrimidine-4-carboxamido)-5-oxo-5-(4-(pentyloxycarbonyl)piperazin-1-yl)pentanoic acid]: the IC50 was determined as 1000 nM.

`CCCCCOC(=O)N1CCN(C(=O)[C@H](CCC(=O)O)NC(=O)c2cc(N3CC(O)C3)nc(-c3ccccc3)n2)CC1` [(S)-4-(6-(3-hydroxyazetidin-1-yl)-2-phenylpyrimidine-4-carboxamido)-5-oxo-5-(4-(pentyloxycarbonyl)piperazin-1-yl)pentanoic acid]: the IC50 was 3500 nM.

With `CCCCCOC(=O)N1CCN(C(=O)[C@H](CCC(=O)O)NC(=O)c2nc(-c3ccccc3)cc(N3CCC(CNC)CC3)n2)CC1` [(S)-4-(4-(4-((methylamino)methyl)piperidin-1-yl)-6-phenylpyrimidine-2-carboxamido)-5-oxo-5-(4-(pentyloxycarbonyl)piperazin-1-yl)pentanoic acid], the IC50 amounted to 1300 nM.

Turning to `CCCCCOC(=O)N1CCN(C(=O)[C@H](CCC(=O)O)NC(=O)c2cc(N3CCOCC3)nc(-c3ccccc3)n2)CC1` [(S)-4-(6-morpholino-2-phenylpyrimidine-4-carboxamido)-5-oxo-5-(4-(pentyloxycarbonyl)piperazin-1-yl)pentanoic acid], the IC50 amounted to 6300 nM.

For the compound `CCCCCOC(=O)N1CCN(C(=O)[C@H](CCC(=O)O)NC(=O)c2nc(-c3ccccc3)cc(N3CCNCC3)n2)CC1` [(S)-5-oxo-5-(4-(pentyloxycarbonyl)piperazin-1-yl)-4-(4-phenyl-6-(piperazin-1-yl)pyrimidine-2-carboxamido)pentanoic acid], the IC50 was 5200 nM.
